Experimental findings from US8658638B2, “Mineralocorticoid receptor antagonist and methods of use” (priority 2009, dated 2014) are described below.

For experiment [1], the target named is T1, human mineralocorticoid receptor (MR) (Homo sapiens, UniProt P08235).
T1 construct: expressed in transfected cells; host or cells: HEK293
T1 sequence (P08235 1-984): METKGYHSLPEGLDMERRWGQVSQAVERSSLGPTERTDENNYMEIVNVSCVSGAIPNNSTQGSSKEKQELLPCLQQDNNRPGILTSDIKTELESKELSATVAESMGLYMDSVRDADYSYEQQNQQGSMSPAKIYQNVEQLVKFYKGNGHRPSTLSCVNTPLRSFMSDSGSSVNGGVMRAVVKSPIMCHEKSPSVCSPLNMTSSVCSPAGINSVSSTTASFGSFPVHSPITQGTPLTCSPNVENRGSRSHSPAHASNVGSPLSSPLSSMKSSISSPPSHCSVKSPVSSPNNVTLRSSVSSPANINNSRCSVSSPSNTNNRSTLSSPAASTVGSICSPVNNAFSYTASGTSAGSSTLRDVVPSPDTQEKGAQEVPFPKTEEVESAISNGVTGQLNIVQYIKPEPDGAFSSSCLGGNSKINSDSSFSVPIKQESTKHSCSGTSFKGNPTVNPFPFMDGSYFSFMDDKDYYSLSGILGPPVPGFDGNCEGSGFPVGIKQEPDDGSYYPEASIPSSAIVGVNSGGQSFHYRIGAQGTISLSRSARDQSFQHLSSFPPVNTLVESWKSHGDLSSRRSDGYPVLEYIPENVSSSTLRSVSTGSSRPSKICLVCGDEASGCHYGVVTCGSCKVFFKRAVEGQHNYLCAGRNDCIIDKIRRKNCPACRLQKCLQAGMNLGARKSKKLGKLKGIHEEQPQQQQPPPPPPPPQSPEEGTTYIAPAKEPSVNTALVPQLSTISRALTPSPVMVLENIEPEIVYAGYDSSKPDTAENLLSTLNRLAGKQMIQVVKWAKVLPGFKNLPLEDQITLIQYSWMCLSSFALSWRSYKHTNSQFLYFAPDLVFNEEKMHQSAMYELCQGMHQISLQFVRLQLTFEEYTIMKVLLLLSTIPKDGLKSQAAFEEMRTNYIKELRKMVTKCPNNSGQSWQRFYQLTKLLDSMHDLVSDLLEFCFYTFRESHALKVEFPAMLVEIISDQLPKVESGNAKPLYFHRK
Put plainly: Nuclear hormone receptor panel screen (luciferase reporter, HEK293), MR. Type of experiment: cell-based. The text has this: (§1) Aldosterone exerts it physiological effects through interaction with the mineralocorticoid receptor. Following cytoplasmic binding of aldosterone to MR, the ligand receptor complex translocates to the cell nucleus where it binds to hormone response elements on DNA to initiate expression of target genes. […] The solvents, reagents, and ligands employed in the functional assay are readily available from commercial sources, or can be prepared by one of ordinary skill in the art.
(§2) Human embryonic kidney HEK293 cells are transfected with steroid hormone receptor and reporter gene plasmids using a suitable transfection reagent such as Fugene™. […] After 24 hours incubation with test compounds, cells are lysed and luciferase activity is determined using standard techniques.
(§3) Data are fitted to a four parameter-fit logistic curve to determine EC50 values. […] IC50 values are determined similarly using antagonist mode assay data. In the antagonist mode, percent inhibitions are determined by comparing test compound activity in the presence of low concentration of agonist (0.08 nM aldosterone for MR, 0.25 nM dexamethasone for GR, 0.66 nM of methyltrienolone for AR, and 0.08 nM of promegestone for PR) to the response produced by the same low concentration of agonist in the absence of test compound.

Experiment [2] addresses T2, human progesterone receptor (PR) (Homo sapiens, UniProt P06401).
T2 construct: expressed in transfected cells; host or cells: HEK293
T2 sequence (P06401 1-933): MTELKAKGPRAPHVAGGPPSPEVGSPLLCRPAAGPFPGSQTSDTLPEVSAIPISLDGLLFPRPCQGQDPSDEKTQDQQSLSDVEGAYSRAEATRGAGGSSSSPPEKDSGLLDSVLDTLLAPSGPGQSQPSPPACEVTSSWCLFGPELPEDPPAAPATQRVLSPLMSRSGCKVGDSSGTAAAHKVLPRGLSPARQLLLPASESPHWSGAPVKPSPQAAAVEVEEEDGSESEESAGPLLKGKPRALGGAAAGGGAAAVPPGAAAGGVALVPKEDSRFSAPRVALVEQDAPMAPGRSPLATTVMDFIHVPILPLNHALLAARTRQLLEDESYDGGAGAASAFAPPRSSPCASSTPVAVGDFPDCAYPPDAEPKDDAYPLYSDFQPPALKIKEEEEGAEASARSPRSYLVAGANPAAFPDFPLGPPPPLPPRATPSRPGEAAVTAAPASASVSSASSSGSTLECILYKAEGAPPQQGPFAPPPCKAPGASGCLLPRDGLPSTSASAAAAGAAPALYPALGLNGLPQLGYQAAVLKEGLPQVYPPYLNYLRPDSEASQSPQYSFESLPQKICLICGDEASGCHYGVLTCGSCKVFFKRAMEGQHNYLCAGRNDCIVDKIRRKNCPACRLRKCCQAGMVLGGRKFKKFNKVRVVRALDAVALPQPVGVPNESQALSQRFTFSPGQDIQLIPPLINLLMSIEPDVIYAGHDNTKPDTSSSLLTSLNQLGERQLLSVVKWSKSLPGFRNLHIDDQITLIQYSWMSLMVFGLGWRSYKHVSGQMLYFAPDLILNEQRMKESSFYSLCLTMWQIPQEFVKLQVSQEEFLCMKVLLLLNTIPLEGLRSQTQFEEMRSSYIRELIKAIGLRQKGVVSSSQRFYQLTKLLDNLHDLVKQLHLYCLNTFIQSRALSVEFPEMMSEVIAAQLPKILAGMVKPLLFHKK
Put plainly: Nuclear hormone receptor panel screen (luciferase reporter, HEK293), PR. Type of experiment: cell-based.
Description: as §1, §2, §3

Some results are limits rather than exact numbers.

With `O=c1[nH]c2cc(/C=C3\c4ccccc4COc4cc(F)ccc43)ccc2n1[C@@H]1C[C@@H]2COCCN2C1` [Compound (I), 5-((E)-(3-fluorodibenzo[b,e]oxepin-11(6H)-ylidene)methyl)-1-((7R,8aR)-hexahydro-1H-pyrrolo[2,1-c][1,4]oxazin-7-yl)-1H-benzo[d]imidazol-2(3H)-one], the EC50 in experiment [1] (agonist mode) and in experiment [2] (agonist mode) was > 10000 nM in each case. Further, the IC50 is ~21 nM in experiment [1] (antagonist mode, 0.08 nM aldosterone) and ~924 nM in experiment [2] (antagonist mode, 0.08 nM promegestone).
